One assay addresses T1, CB1-Receptor (Homo sapiens, UniProt P21554).
T1 construct: purchased Receptor Biology, Inc
In words: In-vitro determination of affinity to CB1 receptor (radioligand [3H]-CP55940). The assay is classed as binding. Here is the method: (§1) The in-vitro determination of the affinity of the substituted pyrazoline compounds to CB1/CB2-Rezeptors is carried out as described in the publication of Ruth A. Ross, Heather C. Brockie et al., "Agonist-inverse agonist characterization at CB1 and CB2 cannabinoid receptors of L-759633, L759656 and AM630", British Journal of Pharmacology, 126, 665-672, (1999), whereby the transfected human CB1 and CB2 receptors of Receptor Biology, Inc. are used. The radioligand used for both receptors is [^3H]-CP55940. The respective parts of the description is hereby incorporated by reference and forms part of the present disclosure.
The affinity of the inventive substituted pyrazoline compounds to CB1/CB2 receptors was determined as described above.

Assay [1] has as its system cannabinoid receptors. Put plainly: Mouse tetrad model, agonistic effect. The note with it: 5 mg/kg i.v., mice. On the set-up: key to Agonistic effect D: Sedation: % of sedation = arithmetic mean score/3 × 100. Format: in vivo, Male NMRI mice. The text has this:
(§2) Substances with affinity for cannabinoid receptors are known to produce a wide range of pharmacological effects. It is also known that intravenous administration of a substance with affinity for cannabinoid receptors in mice produces analgesia , hypothermia, sedation and catalepsy. Individually, none of these effects can be considered as proof that a tested substance has affinity for cannabinoid-receptors, since all of these effects are common for various classes of centrally active agents. However, substances, which show all of these effects, i.e. substances that are active in this so-called tetrad model are considered to have affinity for the cannabinoid receptors. It has further been shown that cannabinoid receptor antagonists are higly effective in blocking the effects of a cannabinoid agonist in the mouse tetrad model.
(§3) The tetrad model is described, for example, in the publication of A. C. Howlett et al, International Union of Pharmacology XXVII. Classification of Cannabinoid e cept σs, Pharmacol Rev 54, 161-202 , 2002 and David R. Compton et al., "In-vivo Characterization of a Specific Cannabinoid Receptor Antagonist (SR141716A) :Inhibition of Tetrahydrocannbinol- induced Responses and Apparent Agonist Activity", J. Pharmacol. Exp. Ther. 277, 2, 586-594, 1996. The corresponding parts of the description are hereby incorporated by reference.
(§4) Male NMRI mice with a weight of 20-30 g (Harlan, Barcelona, Spain) are used in all of the following experiments.
(§5) Before testing in the behavioral procedures given below, mice are acclimatized to the experimental setting. Pre-Treatment control values are determined for analgesia hot plate latency (in seconds), rectal temperature, sedation and catalepsy.
(§6) In order to determine the agonistic activty of the substance to be tested, the mice are injected intravenously with the substance to be tested or the vehicle alone. 15 minutes after injection, latency in hot plate analgesia is measured. Rectal temperature, sedation and catalepsy are measured 20 minutes after injection.
(§7) The hot plate analgesia is determined according to the method described in Woolfe D. et al. "The evaluation of analgesic action of pethidine hydrochloride (Demerol)", J. Pharmacol. Exp. Ther. 80, 300-307,1944. The respective description is hereby incorporated by reference and forms part of the present disclosure.
(§8) The mice are placed on a hot plate (Harvard Analgesimeter) at 55 ± 0.5 °C until they show a painful sensation by licking their paws or jumping and the time for these sensations to occur is recorded. This reading is considered the basal value (B). The maximum time limit the mice are allowed to remain on the hot plate in absence of any painful response is 40 seconds in order to prevent skin damage. This period is called the cut-off time (PC).
(§9) Fifteen minuts after the administration of the substance to be tested, the mice are again placed on the hot plate and the afore described procedure is repeated. This period is called the post-treatment reading (PT).
(§10) %MPEof Analgesia = (PT−B)/(PC−B) × 100 [formula]
(§11) Sedation and ataxia is determined according to the method described in Desmet L. K. C. et al. "Anticonvulsive properties of Cinarizine and Flunarizine in Rats and Mice", Arzneim. -Forsch. (Frug Res) 25, 9, 1975. The respective description is hereby incorporated by reference and forms part of the present disclosure.
(§12) The chosen scoring system is
%of sedation = arithmetic mean/3 × 100 [formula]
Hypothermia is determined according to the method described in David R. Compton et al. "In-vivo Characterization of a Specific Cannabinoid Receptor Antagonist (SR141716A) Inhibition of Tetrahydrocannbinol- induced Responses and Apparent Agonist Activity", J. Pharmacol Exp Ther. 277 , 2, 586-594, 1996. The respective description is hereby incorporated by reference and forms part of the present disclosure. […]

The subject of assay [2] is cannabinoid receptors. In words: Mouse tetrad model, antagonistic effect against Win 55212-2. The assay is classed as in vivo, Male NMRI mice. On the set-up: unit not given here. The note with it: 5 mg/kg i.v. prior to Win 55212-2 in a dose of 1,25mg/kg i.v., mice.
From the text: as §2, §3, §4, §5, §6
In order to determine the antagonistic activity the identical procedure is used as for the determination of the agonistic effects, but with the difference that the substance to be evaluated for its antagonistic activity is injectected 5 minutes before the intravenous injection of 1.25 mg/kg Win-55,212 a known cannabinoid-receptor agonist.
as §7, §8, §9, §10, §11, §12
%of sedation = arithmetic mean/3 × 100 [formula] […]

A further assay concerns the target T2, CB2-Receptor (Homo sapiens, UniProt P34972).
T2 construct: purchased Receptor Biology, Inc
Put plainly: In-vitro determination of affinity to CB2 receptor (radioligand [3H]-CP55940). The assay is classed as binding. As for the experimental part: as §1, with “disclosure. The affinity of the inventive substituted pyrazoline compounds to CB1/CB2 receptors was determined as described above.” for “disclosure.”

For orientation: Ki means the dissociation constant of the complex between target and ligand, obtained from inhibition or displacement.

SMILES strings stand for the structures.

T2 sequence (P34972 whole entry): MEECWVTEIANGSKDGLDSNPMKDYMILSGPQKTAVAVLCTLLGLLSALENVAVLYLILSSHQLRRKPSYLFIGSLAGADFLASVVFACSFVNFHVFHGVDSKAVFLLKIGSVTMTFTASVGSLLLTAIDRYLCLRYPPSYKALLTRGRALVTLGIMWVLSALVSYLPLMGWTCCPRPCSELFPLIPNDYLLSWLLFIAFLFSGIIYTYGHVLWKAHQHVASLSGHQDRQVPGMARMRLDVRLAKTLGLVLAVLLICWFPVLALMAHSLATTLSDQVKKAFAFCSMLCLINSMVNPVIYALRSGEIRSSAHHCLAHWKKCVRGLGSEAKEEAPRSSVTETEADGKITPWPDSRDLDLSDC
T1 sequence (P21554 whole entry): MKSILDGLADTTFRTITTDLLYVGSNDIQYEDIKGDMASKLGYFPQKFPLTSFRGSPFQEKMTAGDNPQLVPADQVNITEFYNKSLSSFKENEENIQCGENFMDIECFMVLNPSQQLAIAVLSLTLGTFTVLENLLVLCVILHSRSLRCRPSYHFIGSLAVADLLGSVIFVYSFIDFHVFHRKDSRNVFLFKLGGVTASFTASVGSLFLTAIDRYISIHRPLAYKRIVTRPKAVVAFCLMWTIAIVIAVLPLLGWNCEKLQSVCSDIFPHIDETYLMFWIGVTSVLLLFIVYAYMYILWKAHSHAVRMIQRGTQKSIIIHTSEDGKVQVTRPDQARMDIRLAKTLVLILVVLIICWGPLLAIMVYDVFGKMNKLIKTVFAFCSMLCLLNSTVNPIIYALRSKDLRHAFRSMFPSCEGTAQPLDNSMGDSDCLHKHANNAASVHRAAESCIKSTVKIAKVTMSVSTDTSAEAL

Consider `O=C(NN1CCCCC1)C1=NN(c2ccc(Cl)cc2Cl)C(c2ccc(Cl)cc2)C1` (stereo not shown) [Example 1, N-piperidinyl-5-(4-chlorophenyl)-1-(2,4-dichlorophenyl)-4,5-dihydro-1H-pyrazole-3-carboxamide], for which, on CB1-Receptor, the inhibition constant (Ki) was below 25 nM. In addition, in the assay with cannabinoid receptors [1], the “Agonistic effect A: Hot-Plate test” value turned out to be 0, the “Agonistic effect B: Hypothermia” value is 0, the “Agonistic effect C: Catalepsy” value is listed as 0 and the “Agonistic effect D: Sedation” value was 0. Also, in the assay with cannabinoid receptors [2], the “Antagonistic Effect A: Hot-Plate test” value was 74, the “Antagonistic Effect B: Hypothermia” value came out at 100, the “Antagonistic Effect C: Catalepsy” value was determined as 100 and the “Antagonistic Effect D: Sedation” value stood at 100. The molecule further had a Ki on CB2-Receptor above 1000 nM.

As for `O=C(C1=NN(c2ccc(Cl)cc2Cl)C(c2ccc(Cl)cc2)C1)N1CCCCC1` (stereo not shown) [Example 5, [5-(4-Chloro-phenyl)-1-(2,4-dichloro-phenyl)-4,5-dihydro-1H-pyrazol-3-yl]-piperidin-1-yl-methanone], in the assay with cannabinoid receptors [1], the “Agonistic effect A: Hot-Plate test” value is listed as 0, the “Agonistic effect B: Hypothermia” value was determined as 50, the “Agonistic effect C: Catalepsy” value was 0 and the “Agonistic effect D: Sedation” value came out at 0. Moreover, in the assay on cannabinoid receptors [2], the “Antagonistic Effect A: Hot-Plate test” value is reported as 50, the “Antagonistic Effect B: Hypothermia” value was determined as 40, the “Antagonistic Effect C: Catalepsy” value came to 20 and the “Antagonistic Effect D: Sedation” value came out at 20. The molecule also had a Ki at CB2-Receptor of around 1000 nM.

These data come from patent EP1743641A1, “Use of substituted pyrazoline compounds for the treatment of food disorders, including obesity or metabolic syndrome in patients with developed diabetes” (LABORATORIOS DEL DR. ESTEVE, S.A., priority 2005, dated 2007).
